Assays:
DMS114 SCLC cells = assay: Cell growth inhibition assay for DMS114 SCLC cells; type: cell-based; settings: Homo sapiens, DMS-114, 17-21 days of treatment, mean of 6 biological replicates, read-out: Proliferation IC50 ± SD (nM) (n)
Method: (§1) COR-L88 (92031917) cells were purchased from ECACC. […] No. 1565565).
DMS114 SCLC cells were plated in complete cell culture medium described above (1 mL/well) in a 12-well clear, flat bottom polystyrene tissue culture plate (Falcon, Cat. 353225) at a density of 10,000 cells/well. Plates were incubated overnight for 16 hours at 37° C. and 5% CO2. Cells were then treated for 3 days with a 10-point, 3-fold serial dilution of Compound 1 starting at a high concentration of 3 μM. After 3 days, cells from each individual dose treatment were dissociated with Trypsin-EDTA (0.25%) (Gibco/Life Technologies Cat. 25200-056), resuspended in fresh medium, and counted using Vi-Cell cell counter and cell viability analyzer (Beckman Coulter, cat. 383556). […] Plates were then read in an Infinite M200 Pro microplate reader (Tecan Cat. 396235) using a fluorescence excitation wavelength of 540 nm to 570 nm (peak excitation is 570 nm) and emission at 580 nm to 610 nm (peak emission is 585 nm). IC50 values were calculated using nonlinear regression dose response curve fit in GraphPad Prism version 7.02.
The activity of Compound 1 in inhibiting cell proliferation of EZH2-WT DMS114 SCLC cells was also assessed using the cell proliferation assay for DMS114 SCLC cells described above. […]

H446 SCLC cells = assay: Cell growth inhibition assay, H446 SCLC cells; type: cell-based; settings: Homo sapiens, NCI-H446, 504 h; H446 cell line, 21 days of treatment; read-out: inhibition of cell proliferation, mean IC50
Method: as §1
H841, H446 and H69 cells were plated in their recommended complete culture medium described above (1 mL/well) in triplicate 12 well plates for each cell line at a density of 100,000 cells per well. Plates were incubated overnight at 37° C. and 5% CO2. Compound 1 stock was prepared at 50 mM in DMSO and was dispensed to several single-use aliquots and stored at −20° C. To prepare the compound plate, Compound 1 was diluted to 3 mM in DMSO and then 3-fold serial dilution were made in DMSO (10 doses in total). […] On Day 21, cell morphology was observed under microscope and any morphology changes upon compound treatment were recorded. […] Cell viability was measured using according to manufacturer's instructions.
Based on the strong activity observed with Compound 1 in DMS114 cells (see example 1 above), the antiproliferative activity of Compound 1 was also tested in 3 additional SCLC cell lines, namely H841, H446 and H69 using the cell proliferation assay described above. Each cell line was treated with different concentrations of Compound 1 using a 10-point dose curve (1:3 dilution in DMSO) with 3 μM to 0.1 nM for 21 days and then assessed for cell viability. […]

For COc1cc(C)[nH]c(=O)c1CN1CCc2c(Cl)cc([C@H](OC)C3COC3)c(Cl)c2C1=O [Compound 1, 5,8-dichloro-2-[(4-methoxy-6-methyl-2-oxo-1,2-dihydro-pyridin-3-yl)methyl]-7-[(R)-methoxy(oxetan-3-yl)methyl]-3,4-dihydroisoquinolin-1(2H)-one], the IC50 (DMS114 SCLC cells) was 18.8 nM and the IC50 (H446 SCLC cells) was 0.109 µM.
